The source of these data is patent US20220023300A1, “THERAPEUTIC AND PROPHYLACTIC METHOD FOR TUMOR TREATABLE WITH ENDOCRINE THERAPY BY COMBINED USE OF FIBROBLAST GROWTH FACTOR RECEPTOR INHIBITOR WITH ENDOCRINE THERAPY” (TAIHO PHARMACEUTICAL CO., LTD., priority 2018, published 2022).

One data set has as its system MDA-MB-134VI cells. Put plainly: Cell growth-inhibitory effect of combined use (T/C), CellTiter-Glo 2.0. As to conditions: for viability at 0.1 µM: Homo sapiens, MDA-MB-134-VI, 120 h, read-out: T/C (treated/control) cell viability. The method, then:
The cell viability was measured using CellTiter-Glo 2.0 (Promega). […] The number of cells seeded was 500 cells/80 μL per well. […] After drug addition, the cells were further incubated at 37° C. and 5% CO2 for 120 hours. Experiments were carried out in triplicate (3 wells per treatment group). The cell viability was calculated by adding 100 μL of CellTiter-Glo 2.0 reagent per well, incubating at room temperature for 30 minutes, and then measuring the chemiluminescence of each well with a plate reader (EnSpire). The cell viability in the case of drug addition was calculated as a ratio with respect to the control group, which was set to 100%, according to the following formula, and the average value of the data of three wells was used for the analysis.
Cell viability (%)=(chemiluminescence in the case of drug addition)/(chemiluminescence of control group)×100
A general note: Cellular ATP, detected with luciferase, serves as a proxy for viable cell number.

The next data set has as its system breast cancer. To be noted: phase II; subpopulation of FGF pathway-amplified breast cancer patients; cited from earlier work.

4-hydroxytamoxifen: in the data set with MDA-MB-134VI cells (MDA-MB-134VI, drug alone at 1 μM, 120 hours), the “T/C (treated/control) cell viability” value stood at 65%.
As for `C[C@]12CC[C@@H]3c4ccc(O)cc4C[C@@H](CCCCCCCCC[S+]([O-])CCCC(F)(F)C(F)(F)F)[C@H]3[C@@H]1CC[C@@H]2O` (stereo partly shown) [fulvestrant], the viability at 0.1 µM in the data set with MDA-MB-134VI cells came out at 75%. In addition, the “median value of the mean progression-free survival (PFS)” value in the data set on breast cancer was 5.5 months.
Take `C=CC(=O)N1CC[C@H](n2nc(C#Cc3cc(OC)cc(OC)c3)c3c(N)ncnc32)C1` [compound 1, (S)-1-(3-(4-amino-3-((3,5-dimethoxyphenyl)ethynyl)-1H-pyrazolo[3,4-d]pyrimidin-1-yl)pyrrolidin-1-yl)prop-2-en-1-one]: the viability at 0.1 µM in the data set on MDA-MB-134VI cells turned out to be 35%.
